In PubChem BioAssay (NCI) one finds TGI, outcome and GI50 data, which are given here for 33 molecules.

Structures are written as SMILES.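 Assay format: 96-well plates, 48-hour exposure. The concentration for 50% growth inhibition is given as GI50. At the TGI there is no net growth.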 Active and inactive are the calls of the source. Cut-off read from the data, not from the text of the source: active = GI50 below about 0.43 µM; inactive = the rest. A value given as a limit tells only on which side of the number the result lay.

Common to all, as to assay: NCI tumour cell line growth inhibition, 48 h
Experiment [1] has as its system MDA-N.
In experiment [2] the test system is LXFL 529 NSCLC.
The subject of experiment [3] is RXF-631 renal.
For experiment [4], the system named is SNB-78 CNS.
Experiment [5] relates to M19-MEL melanoma.
Experiment [6] relates to DMS 273 small cell lung.
In experiment [7] the test system is DLD-1 colon.
Experiment [8] deals with XF 498 CNS.
Experiment [9] concerns KM20L2 colon.
Experiment [10] relates to SN12K1 renal.
The subject of experiment [11] is P388/ADR leukemia.

Take `C=C1C(=O)C2(C)OC2(C)C1C(=O)O` (configuration not stated): the TGI in [1] is > 100 µM.

For `NCC1(N2CCOCC2)C2CCCC21CNc1ccccc1` (configuration not stated), the TGI in experiment [2], in [3], in [4], in [5], in [6] and in experiment [7] was > 100 µM throughout. For the same molecule, in [8], the TGI was > 100 µM.

`O=C1C(Br)=CC2(C=C1Br)CCNc1c(O)c3c4c(c12)=NCCC=4C=N3`: the TGI in [9] was found to be 0.413 µM; in experiment [4], 0.656 µM; in [1] it was 0.245 µM; in [5], 0.0656 µM; in experiment [10], 0.426 µM; in experiment [6], 0.427 µM. Besides, the figures for the TGI in experiment [7], in [8] and in experiment [11] were 0.0798 µM, 0.399 µM and 0.0155 µM, respectively.

As to `COc1cc2c(cc1O)C1CC(CC3CCCCN31)OC(=O)/C=C\c1ccc(O)c-2c1` (configuration not stated), the TGI in [1] was > 100 µM.

With `COC(=O)C1(C)CCCC2(C)c3cc(OC)ccc3C(=O)C(Br)C12` (configuration not stated), in experiment [1], the TGI was > 10 µM.

Turning to `COc1cccc(/C=C\c2ccnc3ccccc23)c1`, the TGI in experiment [1] is > 10 µM.

Turning to `CCc1ccc([O-])c(C=NCCCN(C)CCCN=Cc2cc(C)ccc2[O-])c1.[Co+3].[N-]=[N+]=[N-]`, the outcome in experiment [9] and in experiment [8] was inactive. In addition, the GI50 in [4] is > 150 µg/mL; in experiment [1], 50 µg/mL; in [5], > 150 µg/mL; in experiment [10], 21.7 µg/mL; in [6], 34.7 µg/mL; in [7], 61 µg/mL. The GI50 in experiment [11] was 82.9 µg/mL. The TGI in [4] is > 150 µg/mL; in experiment [1], 50 µg/mL; in experiment [5] it was > 150 µg/mL; in [10] it was 54.8 µg/mL; in experiment [6] it was > 150 µg/mL; in [7], > 150 µg/mL. Moreover, in [11], the TGI was > 150 µg/mL.

For `Nc1ccc(C(=O)Nc2ccccc2N)cc1`, the TGI in [2], in experiment [3], in [4], in experiment [1], in [5] and in experiment [6] was > 100 µM throughout. Besides, the TGI in experiment [7] and in experiment [8] was > 100 µM throughout.

As for `CC12CC(=O)C3C(CCC4=CC(=O)CCC43C)C1CC=C2CC(=O)O` (configuration not stated), in [1], the TGI is > 100 µM.

Turning to `O=c1[nH]c(SCc2ccccc2[N+](=O)[O-])nc2nc[nH]c12`, the TGI in experiment [1] was > 100 µM.

In the case of `CC1CC(c2ccc(Cl)c(Cl)c2)=Nc2ccccc2S1` (configuration not stated), the TGI in experiment [2], in experiment [9], in experiment [4], in [5], in experiment [6] and in [7] was > 100 µM throughout. The TGI in [8] was > 100 µM.

With `CN1CCc2cc3c4cc2C1Cc1ccc(cc1)Oc1cc(ccc1O)CC1c2c(cc(O)c(c2O4)O3)CCN1C` (configuration not stated), the TGI in experiment [2] was determined as 6.26 µM; in experiment [9], 10.3 µM; in experiment [3], 7.92 µM; in experiment [4], 21.3 µM; in experiment [5] it was 3.35 µM; in experiment [6], 3.84 µM. The TGI in experiment [7] amounted to 14.8 µM.

Regarding `COc1cc(/C=C/c2ccccn2)cc(OC)c1OC`, the TGI in [1] is > 10 µM.

`COC(=O)C1=C(\O)C[C@@]2(C)CC[C@@H](C(=O)OC)C2C/C=C\1C(=O)OC` (some centres not stated): the TGI in experiment [2], in experiment [9], in experiment [3], in experiment [4], in experiment [5] and in [6] was > 100 µM each time. In experiment [7], the TGI is > 100 µM.

Turning to `COC(CC1(OC)OC(=O)C=C1N)OC` (configuration not stated), the TGI in experiment [2], in [4], in experiment [5], in experiment [6] and in [7] was > 100 µM in each case.

With `COC(=O)NC(=O)c1cn(C2CCCCC2)c(=O)[nH]c1=O`, the TGI in [2], in experiment [9], in experiment [4], in experiment [5], in experiment [6] and in experiment [7] was > 100 µM throughout.

Turning to `NC(=O)c1cc([N+](=O)[O-])cc([N+](=O)[O-])c1`, the TGI in experiment [2] is > 100 µM; in experiment [9] it was > 100 µM; in [3] it was > 100 µM; in [5] it was 46.8 µM; in [6] it was > 100 µM; in [7], > 100 µM.

In the case of `O=C(NC1C(=O)NNC1c1ccccc1Cl)c1ccccc1` (configuration not stated), the TGI in [2], in experiment [9], in experiment [5], in experiment [6], in experiment [7] and in experiment [8] was > 100 µM in each case.

Turning to `O=C1c2ccccc2C(=O)c2c1ccc1c2N=C(c2ccc(Br)cc2)CC(c2cccc3ccccc23)N1` (configuration not stated), the TGI in experiment [2], in experiment [9], in experiment [3], in [4], in experiment [6] and in [7] was > 100 µM in each case. Also, the TGI in experiment [8] was > 100 µM.

On to `Cn1cnc([N+](=O)[O-])c1Sc1nc2ccc([N+](=O)[O-])cc2[nH]1`, for which the TGI in [2] was 26.9 µM; in experiment [9], > 100 µM; in experiment [4], 81 µM; in experiment [5], 44.5 µM; in [6], 4.68 µM; in experiment [7], 32.6 µM. Moreover, in [8], the TGI is 28.9 µM.

As for `CC[C@@]1(O)C(=O)NCc2c1cc1n(c2=O)Cc2cc3c(NC(C)=O)cccc3nc2-1`, in [1], the GI50 is > 100 µM and the TGI was > 100 µM.

With `CCCCCCCCCCCC(=O)OC(COC(N)=O)COc1ccc(Cl)cc1` (configuration not stated), the TGI in [2] was 45.2 µM; in experiment [9], > 100 µM; in experiment [3] it was 67.7 µM; in [4], 84.8 µM; in experiment [5] it was 32.9 µM; in experiment [6] it was 40.9 µM. Further, the values for the TGI in [7] and in experiment [8] were > 100 µM and 45.8 µM, respectively.

For the molecule `NC(=O)c1ncn(Cc2ccccc2)c1CNC(N)=S`, the TGI in [2], in experiment [3], in experiment [4], in experiment [5], in [6] and in experiment [7] was > 100 µM throughout. Besides, the TGI in experiment [8] was > 100 µM.

With `O=c1c2cc(O)c(O)cc2oc2cc(O)c(C3OC(CO)C(O)C(O)C3O)c(O)c12` (configuration not stated), the TGI in experiment [1] was > 100 µM.

As to `O=C1CC[C@@H](NC(=O)Cc2ccccc2)C(=O)N1`, the TGI in [2], in experiment [9], in experiment [5], in experiment [6], in [7] and in experiment [8] was > 100 µM in each case.

Regarding `CCCCC(C(=O)CCC(=O)Nc1ccc(Cl)cc1)C(=O)C(C)C` (configuration not stated), the TGI in [2], in experiment [9], in [3], in experiment [4], in experiment [5] and in experiment [6] was > 100 µM in each case. In addition, the TGI in experiment [7] and in [8] was > 100 µM in each case.

In the case of `O=C(/C=C/c1ccc(O)cc1)c1cc(Cl)ccc1O`, the TGI in [2] is > 100 µM; in experiment [9], > 100 µM; in [4], > 100 µM; in experiment [5] it was > 100 µM; in experiment [7], > 100 µM; in [8] it was 85 µM.

As to `Cc1c(O)c(Br)c(C)c(O)c1Br` (tested in a mixture with another compound), the TGI in experiment [1] came to 3.26 µM.

As for `ClCCCCOC1CCCCO1` (configuration not stated), the TGI in [2], in [9], in [4], in experiment [5], in experiment [6] and in experiment [7] was > 100 µM each time. In experiment [8], the TGI was > 100 µM.

With `Cc1ccc(NC(=O)C(=O)CC(=O)c2ccccc2)cc1C`, the TGI in [2], in experiment [9], in [4], in experiment [5], in experiment [6] and in experiment [7] was > 100 µM throughout. The TGI in experiment [8] is > 100 µM.

For `O=C(/C=C/c1ccccc1)OCC1=C[C@@H](O)[C@@H]2C=CO[C@@H](OC3OC(CO)C(O)C(O)C3O)[C@H]12` (some centres not stated), in experiment [1], the TGI is > 100 µM.

Turning to `CCCCCCSc1nc(COC(=O)NC)c(COC(=O)NC)n1C`, the TGI in [1] was > 100 µM.

Regarding `c1ccc2c(c1)N=C(c1ccc3ccccc3c1)CC(c1cccc3ccccc13)S2` (configuration not stated), the TGI in experiment [2], in [9], in experiment [3], in experiment [5], in experiment [6] and in experiment [7] was > 100 µM in each case. Moreover, the TGI in [8] was > 100 µM.
